Experimental data published in PubChem BioAssay (NCI).
Several values for one entry are separate records, joined by “and”; a condition that tells them apart may be missing. Equal entries are not always repeated.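 A five-concentration, 48-hour dose response in 96-well plates underlies each endpoint, interpolated linearly between surrounding concentrations. At the GI50, growth is halved. TGI: total growth inhibition.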

Legend:
Assay in all cases: NCI tumour cell line growth inhibition, 48 h
CCRF-CEM leukemia = tested on: CCRF-CEM leukemia
DMS 273 small cell lung = tested on: DMS 273 small cell lung
HCT-116 colon = tested on: HCT-116 colon
LXFL 529 NSCLC = tested on: LXFL 529 NSCLC
M14 melanoma = tested on: M14 melanoma
M19-MEL melanoma = tested on: M19-MEL melanoma
RPMI-8226 leukemia = tested on: RPMI-8226 leukemia
SK-OV-3 ovarian = tested on: SK-OV-3 ovarian
SW-620 colon = tested on: SW-620 colon
UO-31 renal = tested on: UO-31 renal
XF 498 CNS = tested on: XF 498 CNS
T-47D breast = tested on: T-47D breast

SMILES	TGI (CCRF-CEM leukemia)	TGI (DMS 273 small cell lung) [µM]	TGI (HCT-116 colon)	TGI (LXFL 529 NSCLC) [µM]	TGI (M14 melanoma)	TGI (M19-MEL melanoma) [µM]	TGI (RPMI-8226 leukemia)	TGI (SK-OV-3 ovarian)	TGI (SW-620 colon) [µM]	TGI (UO-31 renal)	TGI (XF 498 CNS) [µM]	TGI (T-47D breast)	GI50 (CCRF-CEM leukemia)	GI50 (HCT-116 colon)	GI50 (M14 melanoma)	GI50 (RPMI-8226 leukemia)	GI50 (SK-OV-3 ovarian)	GI50 (SW-620 colon)	GI50 (T-47D breast)	GI50 (UO-31 renal)
O=c1nc2cc(-c3ccccc3)[nH]c2nn1-c1c(Cl)cc(Cl)cc1Cl	76.2 µM	> 100	40.1 µM	> 100	59.3 µM	63.2	61.1 µM	92.4 µM	> 100	47 µM	64.1									
C=C1C(C)C2C(Cc3ccccc3)NC(=O)C23C(OC(C)=O)/C=C/C(C)(O)CC(C)C/C=C/C3C1O (centres undefined)	85 µM	> 82	> 100 µM		> 100 µM	> 100	71.2 µM	46.6 µM	> 100	1.1 µM	8.29	> 100 µM								
O=[N+]([O-])c1ccc(Cl)c(C2SCc3nc4ccccc4n32)c1 (centres undefined)	> 100 µM	> 100	> 100 µM	> 100		> 100	> 100 µM	88 µM	88.3	66.1 µM										
COc1ccc(O)c2c1C(=O)CCCC2=O	> 100 µM	> 100	> 100 µM	> 100	> 100 µM	> 100	> 100 µM	> 100 µM	> 100	> 100 µM	> 100									
Cc1nc(C(N)=S)sc1C(=O)/C=C/c1cccc(O)c1	89.2 µM	> 100				> 100	> 100 µM	> 100 µM	> 100	> 100 µM										
COc1ccc(NC(=O)C(=O)C2NC(=S)NC2=O)c(OC)c1 (centres undefined)		> 100	> 100 µM	> 100	> 100 µM	> 100	> 100 µM	> 100 µM	> 100	> 100 µM										
COc1cc2c(cc1C)n(O)c(C)c(C(=O)C/C(=N/NC(=O)C[N+](C)(C)C)C(=O)Nc1cccc(Cl)c1C)[n+]2=O	> 100 µM	> 100	> 100 µM	> 100	> 100 µM		> 100 µM		> 100	> 100 µM	> 100									
CCC1(CN(C)C)CC/C(=C\c2ccc3c(c2)OCO3)C1=O (centres undefined)	> 100 µM	> 100	> 100 µM	> 100	> 100 µM	> 100	> 100 µM		> 100	> 100 µM										
COC(=O)C1=C(C(=O)OC)C2(C(=O)OC)OC1(OC)C(C1(C(=O)OC)C(C(=O)OC)=C1C(=O)OC)=C2C(=O)OC (centres undefined)	> 100 µM	> 100	> 100 µM	> 100	> 100 µM	> 100	> 100 µM	> 100 µM	> 100	> 100 µM	> 100									
COc1cc(C2C(C(=O)Nc3ccccc3)=C(C)NC(C)=C2C(=O)Nc2ccccc2)ccc1O			> 100 µM	> 100		> 100	> 100 µM		> 100	> 100 µM	> 100									
Cc1cc(C)nc(NS(=O)(=O)c2ccc(NC(=O)c3cccc4cc5ccccc5nc34)cc2)n1	77.5 µM	> 100	32.1 µM	> 100	51.4 µM	79	85.7 µM	> 100 µM	> 100	> 100 µM	98.2									
Fc1ccccc1C1CC(C(c2ccccc2)c2ccccc2)=Nc2ccccc2S1 (centres undefined)	5.57 µM	20.9		15.3	25.7 µM		25 µM	68.6 µM	31	28.8 µM	27.1									
CC1=C2C(c3ccccc3)(c3ccccc3)C3C=CC2(C=N3)N(C(=O)NC2CCCCC2)C1=O (centres undefined)	36.1 µM	33.2	29.4 µM	30.1	31.2 µM		37.8 µM	44.3 µM	31.9	27.3 µM										
CC[C@@H]1OC2(C)CC(S(=O)(=O)c3ccccc3)CC1O2 (some centres undefined)	> 100 µM	> 100	> 100 µM	> 100	> 100 µM	> 100	> 100 µM	> 100 µM	> 100	> 100 µM										
COc1ccc(C2S/C(=C\c3ccc(OC)cc3OC)C(=O)N2NC(=O)Cc2ccccc2)cc1 (centres undefined)	> 100 µM	> 100	> 100 µM	> 100	> 100 µM	> 100	> 100 µM	> 100 µM	> 100	> 100 µM										
Cc1ccc(NC(=O)C(=O)Cc2nc3ccccc3o2)c(C)c1		> 100	> 100 µM	> 100	> 100 µM	> 100	> 100 µM	> 100 µM	> 100	> 100 µM	> 100									
COc1ccc(/C=C2\COc3ccc(-c4ccccc4)cc3C2=O)cc1O	> 100 µM		3.53 µM		14.6 µM		> 100 µM	22.3 µM	3.72	16.1 µM		30.2 µM	2.03 µM	1720 nM	3.41 µM	3.61 µM	4.16 µM	1820 nM	3.28 µM	4160 nM
Cc1nc(NC(=O)N2CCC[C@H]2C(N)=O)sc1-c1ccnc(C(C)(C)C(F)(F)F)c1	75.4 µM and > 10 µM		> 87.3 µM		> 82 µM		58.5 µM and > 10 µM	5.98 µM and 6.37 µM	> 67.1	36.7 µM and > 10 µM		1.79 µM and 0.599 µM	5.13 µM and 5.71 µM	2870 nM and 3480 nM	8.75 µM and > 10 µM	16.1 µM and > 10 µM	0.134 µM and 0.262 µM	4820 nM and 7370 nM	0.0412 µM and 0.0507 µM	2480 nM and 2070 nM

SMILES	TGI (CCRF-CEM leukemia)	TGI (DMS 273 small cell lung) [µM]	TGI (HCT-116 colon)	TGI (LXFL 529 NSCLC) [µM]	TGI (M14 melanoma)	TGI (M19-MEL melanoma) [µM]	TGI (RPMI-8226 leukemia)	TGI (SK-OV-3 ovarian)	TGI (SW-620 colon) [µM]	TGI (UO-31 renal)	TGI (XF 498 CNS) [µM]	TGI (T-47D breast)	GI50 (CCRF-CEM leukemia)	GI50 (HCT-116 colon)	GI50 (M14 melanoma)	GI50 (RPMI-8226 leukemia)	GI50 (SK-OV-3 ovarian)	GI50 (SW-620 colon)	GI50 (T-47D breast)	GI50 (UO-31 renal)
CCOC(=O)C(C)(C)Oc1ccc2c(-c3ccc(Cl)cc3)cc(=O)oc2c1	> 100 µM	> 100	> 100 µM	> 100	> 100 µM	> 100	> 100 µM		> 100	> 100 µM										
CC#CC(=O)N1CCC[C@H]1c1nc(-c2ccc(C(=O)Nc3ccccn3)cc2)c2c(N)nccn12	> 100 µM		> 100 µM		> 100 µM		> 100 µM	> 100 µM	> 100	> 100 µM		> 100 µM	> 82.1 µM	> 76000 nM	56.5 µM	59 µM	2.25 µM	> 100000 nM	10.1 µM	32100 nM
O=C(/C=C\c1ccnc2ccccc12)c1ccc([N+](=O)[O-])cc1	> 48.1 µM		3.15 µM		19.4 µM		4.6 µM	> 100 µM	4.79	> 50.7 µM		> 66.4 µM	3.41 µM	1590 nM	4.94 µM	1.87 µM	> 100 µM	1990 nM	4.19 µM	4990 nM
O=c1cccccc1NCCCCNc1cccccc1=O	> 100 µM	> 100	> 100 µM	> 100	> 100 µM	> 100	> 100 µM	> 100 µM	> 100	> 100 µM										
COc1ccc(/C=C2\N=C3SC=C(N)N3C2=O)cc1	4.33 µM		2.61 µM		4.73 µM		2.99 µM	11.7 µM	6.07	1.61 µM		14.9 µM	0.4 µM	1110 nM	1.21 µM	0.492 µM	2.16 µM	1340 nM	0.334 µM	266 nM
CC(=O)N1CC(F)(F)c2c(Sc3ncc(N4CCC5(CC4)COC[C@H]5N)nc3N)cccc21	68.5 µM		46.6 µM		37.8 µM		42.7 µM	> 100 µM	54.4	25.8 µM		> 100 µM	18.7 µM	17700 nM	17.9 µM	12.4 µM	3.75 µM	16800 nM	17.6 µM	2960 nM
CC/C=C\CCC/C=C1/C(=O)C=C[C@@H]1C/C=C\CCCC(=O)O	16.2 µM		5.79 µM		17.3 µM		11 µM	31.3 µM	18	5.58 µM		23.3 µM	2.84 µM	2530 nM	3.89 µM	3.28 µM	14.4 µM	4460 nM	10.1 µM	2160 nM
O=[N+]([O-])c1ccccc1C1N2CCCCC2[C@@H]2c3[nH]c4ccccc4c3CCN12 (some centres undefined)	30.4 µM	23.4		22.8	26.7 µM	18.5	61.3 µM	54.3 µM	23.4	23.5 µM	30.6									
CCC1(OC(C)=O)C(=O)OCc2c1cc1n(c2=O)Cc2cc3ccccc3nc2-1 (centres undefined)	1.93 µM		> 37.5 µM	> 100	> 33 µM	> 100	> 100 µM	> 69.6 µM	> 100	8.19 µM	> 100									
CCNCCNc1cc(-c2ccc(F)cc2)c(C#N)c2nc3ccccc3n12	6.52 µM		4.34 µM		3.63 µM		7.58 µM	26.4 µM	10.1	3.75 µM		4.63 µM	2.77 µM	2240 nM	1.97 µM	2.86 µM	13.5 µM	2950 nM	2.26 µM	1820 nM
O=C1C(c2ccccc2)=C(c2ccccc2)C(c2ccc(CCCCCCc3ccc(C4=C(c5ccccc5)C(=O)C(c5ccccc5)=C4c4ccccc4)cc3)cc2)=C1c1ccccc1	> 100 µM	> 100	> 100 µM	> 100	> 100 µM	> 100	> 100 µM		> 100	> 100 µM										
CN(C)c1ccc(/C=C/c2ccnc3ccccc23)cc1	> 100 µM		> 100 µM and 13.8 µM		> 100 µM and 12.7 µM		> 100 µM and 12.9 µM	> 100 µM and 48.7 µM	> 100	> 100 µM		> 100 µM and 63.8 µM	4.52 µM	3090 nM	2.55 µM	2.77 µM	4.42 µM	2960 nM	2.57 µM	12100 nM
NC(CSC(c1ccccc1)(c1ccccc1)c1ccc2ccccc2c1)C(=O)O (centres undefined)	> 39.4 µM		0.958 µM		0.0512 µM			29.6 µM	11.6	24.3 µM		18 µM	0.0372 µM	31.2 nM	0.0211 µM	0.0327 µM	0.0806 µM	38.1 nM	0.132 µM	3100 nM
COc1ccccc1-n1c(SCc2cc(OC)c(OC)c(OC)c2)nc2ccc(Cl)cc2c1=O	> 100 µM		> 100 µM		> 100 µM		> 100 µM	> 100 µM	> 100	> 100 µM		> 100 µM	3.07 µM	2530 nM	2.22 µM	3.71 µM	7.76 µM	2590 nM	4.95 µM	8520 nM
COc1ccc(/C=C(\C#N)c2cc3ccccc3n2C)cc1	> 100 µM		> 100 µM		> 100 µM		> 100 µM	> 100 µM	> 100	> 100 µM		> 100 µM	0.338 µM	426 nM	0.308 µM	0.388 µM	0.787 µM	357 nM	0.389 µM	924 nM
Cn1cnc([N+](=O)[O-])c1Sc1ncnc2c1ncn2C1OC(CO)C(O)C1O (centres undefined)	> 100 µM		> 100 µM		> 100 µM		> 100 µM	> 100 µM	> 100	> 100 µM		> 100 µM	21.7 µM	4620 nM	2.29 µM	2.93 µM	0.564 µM	32600 nM	5.01 µM	7100 nM
Oc1ccccc1-n1c(-c2ccccc2)ccc1-c1ccccc1	71.1 µM		16.6 µM		29.2 µM		17.9 µM	> 100 µM	20.2	10.6 µM		32.9 µM	4.77 µM	4710 nM	3.71 µM	3.71 µM	8.93 µM	5490 nM	4.12 µM	2170 nM
